# Experimental data from patent publication US20190022165A1, “METHODS AND COMPOSITIONS FOR THE TREATMENT AND PREVENTION OF PULMONARY ARTERIAL HYPERTENSION” (STEALTH BIOTHERAPEUTICS CORP, priority 2016, published 2019).
# Assays:
# [1] = tested on: several mammalian cell types; settings: cited from earlier work
# [2] = tested on: heart failure subjects with reduced ejection fraction (HFrEF≤35%); assay: Single ascending dose trial, 2-D echocardiography: right ventricular systolic pressure (RVSP); format: in vivo, human
# Procedure: (§1) A single-center, randomized, double-blind, placebo-controlled, single ascending dose trial of D-Arg-2′6′-Dmt-Lys-Phe-NH2 was performed in heart failure subjects aged 45-80 years (n=36) with reduced ejection fraction (HFrEF≤35%). Three sequential dose-escalation cohorts were enrolled and administered a single intravenous (IV) dose of D-Arg-2′6′-Dmt-Lys-Phe-NH2 by a 4-hour infusion. In each cohort, 8 subjects were randomly assigned to receive D-Arg-2′6′-Dmt-Lys-Phe-NH2 (active group) and 4 to receive placebo (placebo group infused with 0.9% saline solution in the same manner as the D-Arg-2′6′-Dmt-Lys-Phe-NH2 active group). Eligible subjects were admitted to the research unit on Day 1, were randomized and received the study drug infusion on Day 2 and were discharged on Day 3. Subjects returned to the research unit on Day 7 (+3) for follow-up. The dose levels of D-Arg-2′6′-Dmt-Lys-Phe-NH2 in Cohorts 1, 2, and 3 were 0.005, 0.05, and 0.25 mg/kg/hour, respectively.
# (§2) A single dose of the aromatic-cationic peptide, D-Arg-2′6′-Dmt-Lys-Phe-NH2, was administered intravenously (IV) at 0.005 mg/kg/hour (Cohort 1; low dose), 0.05 mg/kg/hour (Cohort 2; intermediate dose), and 0.25 mg/kg/hour (Cohort 3; high dose) over 4 hours at 60 mL/hour.
# (§3) Echocardiograms (2-D) were performed on Day 2 at pre-dose (0-hr), mid-dose (2-hr), end-dose (4-hr), and 6 hours, 8 hours, 12 hours after infusion initiation, and at Day 3 at 24 hours after infusion initiation in every subject. Primary echo endpoints included end-diastolic volume (EDV) and EDV index, and end-systolic volume (ESV) and ESV index. Secondary echo endpoints included left atrial (LA) volume, right ventricular fractional area change (RV FAC), and right ventricular systolic pressure (RVSP). Exploratory echo endpoints included global longitudinal strain.
# (§4) All statistical analyses, summary tables and data listings were prepared using SAS software Version 9.2 or higher. Overall differences in pharmacokinetic parameters of systemic exposure (e.g., Cmax and AUC) across the 3 different dosing regimens were evaluated by ANOVA. In general, significance was determined at the p<0.05 level. For continuous variables, descriptive statistics (sample size, mean, standard deviation, median, minimum, and maximum values) were determined. For discrete variables, frequency distributions were generated.
# [3] = tested on: heart failure subjects with reduced ejection fraction (HFrEF≤35%); assay: Single ascending dose trial, 2-D echocardiography: right ventricular fractional area change (RV FAC); format: in vivo, human; settings: for RV FAC Δ from baseline, Mean Active Group with 95% CI: Cohort 3, 0.25 mg/kg/hour IV 4-hour infusion
# Procedure: as §1, §2, §3, §4
# [4] = Cohort 3, 0.25 mg/kg/hour, 6 Hours
# [5] = Cohort 3, 0.25 mg/kg/hour, 8 Hours
# [6] = Cohort 3, 0.25 mg/kg/hour, 12 Hours
# [7] = Cohort 3, 0.25 mg/kg/hour, 24 Hours
# [8] = Cohort 3, 0.25 mg/kg/hour, End-Dose
# [9] = Cohort 3, 0.25 mg/kg/hour, Mid-Dose
substance,measurement,setting,value
"2′,6′-Dmt-D-Arg-Phe-Lys-NH2",penetration of the plasma membrane,[1],readily penetrates the plasma membrane of several mammalian cell types in an energy-independent manner
D-Arg-2′6′-Dmt-Lys-Phe-NH2,"RVSP Δ from baseline, Mean Active Group","[2]; Cohort 2, 0.05 mg/kg/hour IV 4-hour infusion, 6 Hours",−4.8 mmHg
same,"RVSP Δ from baseline, Mean Active Group","[2]; Cohort 2, 0.05 mg/kg/hour IV 4-hour infusion, 8 Hours",−6.5 mmHg
same,"RVSP Δ from baseline, Mean Active Group","[2]; Cohort 2, 0.05 mg/kg/hour IV 4-hour infusion, 12 Hours",−5.6 mmHg
same,"RVSP Δ from baseline, Mean Active Group","[2]; Cohort 2, 0.05 mg/kg/hour IV 4-hour infusion, 24 Hours",−5.3 mmHg
same,"RVSP Δ from baseline, Mean Active Group","[2]; Cohort 2, 0.05 mg/kg/hour IV 4-hour infusion, End-Dose",−9.9 mmHg
same,"RVSP Δ from baseline, Mean Active Group","[2]; Cohort 2, 0.05 mg/kg/hour IV 4-hour infusion, Mid-Dose",−8.5 mmHg
same,"RVSP Δ from baseline, Mean Difference (active vs pooled placebo)","[2]; Cohort 2, 0.05 mg/kg/hour, 6 Hours",−4.4 mmHg
same,"RVSP Δ from baseline, Mean Difference (active vs pooled placebo)","[2]; Cohort 2, 0.05 mg/kg/hour, 8 Hours",−4.4 mmHg
same,"RVSP Δ from baseline, Mean Difference (active vs pooled placebo)","[2]; Cohort 2, 0.05 mg/kg/hour, 12 Hours",−9.7 mmHg
same,"RVSP Δ from baseline, Mean Difference (active vs pooled placebo)","[2]; Cohort 2, 0.05 mg/kg/hour, 24 Hours",−5.0 mmHg
same,"RVSP Δ from baseline, Mean Difference (active vs pooled placebo)","[2]; Cohort 2, 0.05 mg/kg/hour, End-Dose",−19.1 mmHg
same,"RVSP Δ from baseline, Mean Difference (active vs pooled placebo)","[2]; Cohort 2, 0.05 mg/kg/hour, Mid-Dose",−8.2 mmHg
same,"pulmonary pressures (RVSP) relative to baseline, in words","[2]; Cohort 2, 0.05 mg/kg/hour, at end dose",significant decrease in pulmonary pressures (RVSP)
same,"RVSP Δ from baseline, Mean Active Group","[2]; Cohort 3, 0.25 mg/kg/hour IV 4-hour infusion, 6 Hours",−11.7 mmHg
same,"RVSP Δ from baseline, Mean Active Group","[2]; Cohort 3, 0.25 mg/kg/hour IV 4-hour infusion, 8 Hours",−1.3 mmHg
same,"RVSP Δ from baseline, Mean Active Group","[2]; Cohort 3, 0.25 mg/kg/hour IV 4-hour infusion, 12 Hours",2.6 mmHg
same,"RVSP Δ from baseline, Mean Active Group","[2]; Cohort 3, 0.25 mg/kg/hour IV 4-hour infusion, 24 Hours",−1.6 mmHg
same,"RVSP Δ from baseline, Mean Active Group","[2]; Cohort 3, 0.25 mg/kg/hour IV 4-hour infusion, End-Dose",−1.2 mmHg
same,"RVSP Δ from baseline, Mean Active Group","[2]; Cohort 3, 0.25 mg/kg/hour IV 4-hour infusion, Mid-Dose",0.9 mmHg
same,"RVSP Δ from baseline, Mean Difference (active vs pooled placebo)",[2]; [4],−11.3 mmHg
same,"RVSP Δ from baseline, Mean Difference (active vs pooled placebo)",[2]; [5],0.9 mmHg
same,"RVSP Δ from baseline, Mean Difference (active vs pooled placebo)",[2]; [6],−1.5 mmHg
same,"RVSP Δ from baseline, Mean Difference (active vs pooled placebo)",[2]; [7],−1.3 mmHg
same,"RVSP Δ from baseline, Mean Difference (active vs pooled placebo)",[2]; [8],−10.3 mmHg
same,"RVSP Δ from baseline, Mean Difference (active vs pooled placebo)",[2]; [9],1.1 mmHg
same,"right ventricular fractional area change (RV FAC), in words","[3]; Cohort 3, 0.25 mg/kg/hour",overall improvement in right ventricular fractional area change (RV FAC)
same,"RV FAC Δ from baseline, Mean Active Group with 95% CI",[3]; 6 Hours,"2.6 (−0.7, 5.9) %"
same,"RV FAC Δ from baseline, Mean Active Group with 95% CI",[3]; 8 Hours,"3.4 (−0.7, 7.5) %"
same,"RV FAC Δ from baseline, Mean Active Group with 95% CI",[3]; 12 Hours,"1.7 (−4.0, 7.4) %"
same,"RV FAC Δ from baseline, Mean Active Group with 95% CI",[3]; 24 Hours,"2.5 (−2.0, 7.0) %"
same,"RV FAC Δ from baseline, Mean Active Group with 95% CI",[3]; End-Dose,"0.3 (−4.8, 5.5) %"
same,"RV FAC Δ from baseline, Mean Active Group with 95% CI",[3]; Mid-Dose,"1.6 (−2.6, 5.8) %"
same,"RV FAC Δ from baseline, Mean Difference (active vs pooled placebo)",[3]; [4],3.8%
same,"RV FAC Δ from baseline, Mean Difference (active vs pooled placebo)",[3]; [5],4.6%
same,"RV FAC Δ from baseline, Mean Difference (active vs pooled placebo)",[3]; [6],8.9%
same,"RV FAC Δ from baseline, Mean Difference (active vs pooled placebo)",[3]; [7],3.8%
same,"RV FAC Δ from baseline, Mean Difference (active vs pooled placebo)",[3]; [8],0.3%
same,"RV FAC Δ from baseline, Mean Difference (active vs pooled placebo)",[3]; [9],3.8%
